COC(=O)[C@H](N)c1ccccc1.Cl
solubility (mole fraction)
Details | in acetone | in ethanol | in ethyl acetate | in methanol | in toluene | in water
283.15 K | 1.3e-05 | 0.015 | 3.9e-05 | 0.076 | 9e-06 | 0.045
293.15 K | 3.6e-05 | 0.022 | 8.5e-05 | 0.081 | 1.5e-05 | 0.058
303.15 K | 7.8e-05 | 0.028 | 0.00015 | 0.085 | 2.3e-05 | 0.068
313.15 K | 0.00013 | 0.033 | 0.00021 | 0.09 | 3.3e-05 | 0.077
323.15 K | 0.00018 | 0.037 | 0.00025 | 0.096 | 4.4e-05 | 0.086
333.15 K | 0.00025 | 0.042 | 0.00029 | 0.1 | 5.6e-05 | 0.095
